Experimental data published in patent publication US20100041089A1, “IMPROVED METHOD FOR DETECTING CHEMICAL […]” (priority 2006, published 2010).

Tested on: yeast genes (expressed mRNA)
Assay: DNA chip measurement of expressed mRNA of yeast genes after culture with a toxic chemical substance
Assay type: cell-based, Saccharomyces cerevisiae S288C
How it was run: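 Two-hour exposure of growing S. cerevisiae S288C (YPD, 25° C) to a sublethal toxicant preceded RNA isolation. Fluorescent cDNA was hybridized to a whole-genome array; a treated-to-untreated signal ratio of two or more was taken as significant.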

S=C([S-])NCCNC(=S)[S-].[Zn+2] [(11), Zinc N,N′-ethylenebis(dithiocarbamate)]
The level of expressed mRNA in the presence of chemical substance/The level of expressed mRNA in the absence of chemical substance (yeast gene YKL086W, cultured two hours with substance): 0.7
The level of expressed mRNA in the presence of chemical substance/The level of expressed mRNA in the absence of chemical substance (yeast gene YKL151C, cultured two hours with substance): 2.3
The level of expressed mRNA in the presence of chemical substance/The level of expressed mRNA in the absence of chemical substance (yeast gene YKL153W, cultured two hours with substance): 2.1
The level of expressed mRNA in the presence of chemical substance/The level of expressed mRNA in the absence of chemical substance (yeast gene YKL195W, cultured two hours with substance): 1.0
The level of expressed mRNA in the presence of chemical substance/The level of expressed mRNA in the absence of chemical substance (yeast gene YKR076W): 18.6
The level of expressed mRNA in the presence of chemical substance/The level of expressed mRNA in the absence of chemical substance (yeast gene YKR091W, cultured two hours with substance): 1.1
The level of expressed mRNA in the presence of chemical substance/The level of expressed mRNA in the absence of chemical substance (yeast gene YLL060C (detoxification protein gene)): 14.1
The level of expressed mRNA in the presence of chemical substance/The level of expressed mRNA in the absence of chemical substance (yeast gene YLL060C (stress protein genes)): 14.1
The level of expressed mRNA in the presence of chemical substance/The level of expressed mRNA in the absence of chemical substance (yeast gene YLR031W, cultured two hours with substance): 0.7
The level of expressed mRNA in the presence of chemical substance/The level of expressed mRNA in the absence of chemical substance (yeast gene YLR054C, cultured two hours with substance): 0.7
The level of expressed mRNA in the presence of chemical substance/The level of expressed mRNA in the absence of chemical substance (yeast gene YLR142W): 3.8
The level of expressed mRNA in the presence of chemical substance/The level of expressed mRNA in the absence of chemical substance (yeast gene YLR149C, cultured two hours with substance): 2.8
The level of expressed mRNA in the presence of chemical substance/The level of expressed mRNA in the absence of chemical substance (yeast gene YLR152C, cultured two hours with substance): 3.6
The level of expressed mRNA in the presence of chemical substance/The level of expressed mRNA in the absence of chemical substance (yeast gene YLR194C, cultured two hours with substance): 1.4
The level of expressed mRNA in the presence of chemical substance/The level of expressed mRNA in the absence of chemical substance (yeast gene YLR205C, cultured two hours with substance): 0.4
The level of expressed mRNA in the presence of chemical substance/The level of expressed mRNA in the absence of chemical substance (yeast gene YLR297W, cultured two hours with substance): 3.5
The level of expressed mRNA in the presence of chemical substance/The level of expressed mRNA in the absence of chemical substance (yeast gene YLR324W, cultured two hours with substance): 0.9
The level of expressed mRNA in the presence of chemical substance/The level of expressed mRNA in the absence of chemical substance (yeast gene YLR346C, cultured two hours with substance): 0.5
The level of expressed mRNA in the presence of chemical substance/The level of expressed mRNA in the absence of chemical substance (yeast gene YLR350W, cultured two hours with substance): 0.9
The level of expressed mRNA in the presence of chemical substance/The level of expressed mRNA in the absence of chemical substance (yeast gene YLR387C, cultured two hours with substance): 0.9
The level of expressed mRNA in the presence of chemical substance/The level of expressed mRNA in the absence of chemical substance (yeast gene YLR460C, cultured two hours with substance): 14.3
The level of expressed mRNA in the presence of chemical substance/The level of expressed mRNA in the absence of chemical substance (yeast gene YML117W, cultured two hours with substance): 0.8
The level of expressed mRNA in the presence of chemical substance/The level of expressed mRNA in the absence of chemical substance (yeast gene YML131W): 14.4
The level of expressed mRNA in the presence of chemical substance/The level of expressed mRNA in the absence of chemical substance (yeast gene YMR009W, cultured two hours with substance): 2.1
The level of expressed mRNA in the presence of chemical substance/The level of expressed mRNA in the absence of chemical substance (yeast gene YMR067C, cultured two hours with substance): 1.1
The level of expressed mRNA in the presence of chemical substance/The level of expressed mRNA in the absence of chemical substance (yeast gene YMR090W, cultured two hours with substance): 8.8
The level of expressed mRNA in the presence of chemical substance/The level of expressed mRNA in the absence of chemical substance (yeast gene YMR095C, cultured two hours with substance): 2.1
The level of expressed mRNA in the presence of chemical substance/The level of expressed mRNA in the absence of chemical substance (yeast gene YMR097C, cultured two hours with substance): 1.5
The level of expressed mRNA in the presence of chemical substance/The level of expressed mRNA in the absence of chemical substance (yeast gene YMR102C, cultured two hours with substance): 1.5
The level of expressed mRNA in the presence of chemical substance/The level of expressed mRNA in the absence of chemical substance (yeast gene YMR107W, cultured two hours with substance): 3.0
The level of expressed mRNA in the presence of chemical substance/The level of expressed mRNA in the absence of chemical substance (yeast gene YMR140W, cultured two hours with substance): 0.7
The level of expressed mRNA in the presence of chemical substance/The level of expressed mRNA in the absence of chemical substance (yeast gene YMR180C, cultured two hours with substance): 0.7
The level of expressed mRNA in the presence of chemical substance/The level of expressed mRNA in the absence of chemical substance (yeast gene YMR184W, cultured two hours with substance): 1.5
The level of expressed mRNA in the presence of chemical substance/The level of expressed mRNA in the absence of chemical substance (yeast gene YMR191W, cultured two hours with substance): 2.3
The level of expressed mRNA in the presence of chemical substance/The level of expressed mRNA in the absence of chemical substance (yeast gene YMR195W, cultured two hours with substance): 1.1
The level of expressed mRNA in the presence of chemical substance/The level of expressed mRNA in the absence of chemical substance (yeast gene YMR295C, cultured two hours with substance): 1.2
The level of expressed mRNA in the presence of chemical substance/The level of expressed mRNA in the absence of chemical substance (yeast gene YMR316W, cultured two hours with substance): 1.5
The level of expressed mRNA in the presence of chemical substance/The level of expressed mRNA in the absence of chemical substance (yeast gene YNL044W, cultured two hours with substance): 1.1
The level of expressed mRNA in the presence of chemical substance/The level of expressed mRNA in the absence of chemical substance (yeast gene YNL074C, cultured two hours with substance): 1.3
The level of expressed mRNA in the presence of chemical substance/The level of expressed mRNA in the absence of chemical substance (yeast gene YNL092W, cultured two hours with substance): 0.7
The level of expressed mRNA in the presence of chemical substance/The level of expressed mRNA in the absence of chemical substance (yeast gene YNL115C, cultured two hours with substance): 1.1
The level of expressed mRNA in the presence of chemical substance/The level of expressed mRNA in the absence of chemical substance (yeast gene YNL134C, cultured two hours with substance): 5.0
The level of expressed mRNA in the presence of chemical substance/The level of expressed mRNA in the absence of chemical substance (yeast gene YNL156C, cultured two hours with substance): 1.4
The level of expressed mRNA in the presence of chemical substance/The level of expressed mRNA in the absence of chemical substance (yeast gene YNL190W, cultured two hours with substance): 1.0
level of expressed mRNA in the presence of chemical substance / level in the absence of chemical substance (yeast gene YNL194C, cultured two hours with the chemical substance): 17.1
The level of expressed mRNA in the presence of chemical substance/The level of expressed mRNA in the absence of chemical substance (yeast gene YNL195C, cultured two hours with the chemical substance): 2.9
The level of expressed mRNA in the presence of chemical substance/The level of expressed mRNA in the absence of chemical substance (yeast gene YNL208W, cultured two hours with substance): 2.5
The level of expressed mRNA in the presence of chemical substance/The level of expressed mRNA in the absence of chemical substance (yeast gene YNL234W, cultured two hours with substance): 1.3
The level of expressed mRNA in the presence of chemical substance/The level of expressed mRNA in the absence of chemical substance (yeast gene YNL241C, cultured for two hours with substance): 3.0
The level of expressed mRNA in the presence of chemical substance/The level of expressed mRNA in the absence of chemical substance (yeast gene YNL281W, cultured two hours with substance): 1.6
The level of expressed mRNA in the presence of chemical substance/The level of expressed mRNA in the absence of chemical substance (yeast gene YNL300W, cultured two hours with substance): 0.9
The level of expressed mRNA in the presence of chemical substance/The level of expressed mRNA in the absence of chemical substance (yeast gene YNL305C, cultured two hours with substance): 1.8
The level of expressed mRNA in the presence of chemical substance/The level of expressed mRNA in the absence of chemical substance (yeast gene YNR064C, cultured two hours with substance): 0.7
The level of expressed mRNA in the presence of chemical substance/The level of expressed mRNA in the absence of chemical substance (yeast gene YNR068C, cultured two hours with substance): 1.1
The level of expressed mRNA in the presence of chemical substance/The level of expressed mRNA in the absence of chemical substance (yeast gene YOL032W, cultured two hours with substance): 1.4
The level of expressed mRNA in the presence of chemical substance/The level of expressed mRNA in the absence of chemical substance (yeast gene YOL036W, cultured two hours with substance): 2.2
The level of expressed mRNA in the presence of chemical substance/The level of expressed mRNA in the absence of chemical substance (yeast gene YOL047C, cultured two hours with substance): 0.9
The level of expressed mRNA in the presence of chemical substance/The level of expressed mRNA in the absence of chemical substance (yeast gene YOL071W, cultured two hours with substance): 4.3
The level of expressed mRNA in the presence of chemical substance/The level of expressed mRNA in the absence of chemical substance (yeast gene YOL082W, cultured two hours with substance): 1.6
The level of expressed mRNA in the presence of chemical substance/The level of expressed mRNA in the absence of chemical substance (yeast gene YOL083W, cultured two hours with substance): 1.3
The level of expressed mRNA in the presence of chemical substance/The level of expressed mRNA in the absence of chemical substance (yeast gene YOL117W, cultured two hours with substance): 1.0
The level of expressed mRNA in the presence of chemical substance/The level of expressed mRNA in the absence of chemical substance (yeast gene YOL131W, cultured two hours with substance): 1.4
The level of expressed mRNA in the presence of chemical substance/The level of expressed mRNA in the absence of chemical substance (yeast gene YOL150C, cultured two hours with substance): 9.4
The level of expressed mRNA in the presence of chemical substance/The level of expressed mRNA in the absence of chemical substance (yeast gene YOL152W): 5.9
The level of expressed mRNA in the presence of chemical substance/The level of expressed mRNA in the absence of chemical substance (yeast gene YOL162W, cultured two hours with substance): 4.3
The level of expressed mRNA in the presence of chemical substance/The level of expressed mRNA in the absence of chemical substance (yeast gene YOR019W, cultured two hours with substance): 1.7
The level of expressed mRNA in the presence of chemical substance/The level of expressed mRNA in the absence of chemical substance (yeast gene YOR178C, cultured two hours with the chemical substance): 4.1
The level of expressed mRNA in the presence of chemical substance/The level of expressed mRNA in the absence of chemical substance (yeast gene YOR197W, cultured two hours with substance): 1.0
The level of expressed mRNA in the presence of chemical substance/The level of expressed mRNA in the absence of chemical substance (yeast gene YOR215C, cultured two hours with substance): 1.6
The level of expressed mRNA in the presence of chemical substance/The level of expressed mRNA in the absence of chemical substance (yeast gene YOR225W, cultured two hours with substance): 1.2
The level of expressed mRNA in the presence of chemical substance/The level of expressed mRNA in the absence of chemical substance (yeast gene YOR248W, cultured two hours with substance): 2.3
The level of expressed mRNA in the presence of chemical substance/The level of expressed mRNA in the absence of chemical substance (yeast gene YOR382W, cultured two hours with substance): 2.5
The level of expressed mRNA in the presence of chemical substance/The level of expressed mRNA in the absence of chemical substance (yeast gene YPL052W, cultured two hours with substance): 1.2
The level of expressed mRNA in the presence of chemical substance/The level of expressed mRNA in the absence of chemical substance (yeast gene YPL087W, cultured two hours with substance): 2.5
The level of expressed mRNA in the presence of chemical substance/The level of expressed mRNA in the absence of chemical substance (yeast gene YPL171C, cultured for two hours with substance): 37.0
The level of expressed mRNA in the presence of chemical substance/The level of expressed mRNA in the absence of chemical substance (yeast gene YPL196W, cultured two hours with substance): 1.7
The level of expressed mRNA in the presence of chemical substance/The level of expressed mRNA in the absence of chemical substance (yeast gene YPL206C, cultured two hours with substance): 1.5
The level of expressed mRNA in the presence of chemical substance/The level of expressed mRNA in the absence of chemical substance (yeast gene YPL222W, cultured two hours with substance): 1.2
The level of expressed mRNA in the presence of chemical substance/The level of expressed mRNA in the absence of chemical substance (yeast gene YPR023C, cultured two hours with substance): 1.7
The level of expressed mRNA in the presence of chemical substance/The level of expressed mRNA in the absence of chemical substance (yeast gene YPR079W, cultured two hours with substance): 0.8
The level of expressed mRNA in the presence of chemical substance/The level of expressed mRNA in the absence of chemical substance (yeast gene YPR151C, cultured two hours with substance): 1.4
